Series [1] concerns Brucella bronchiseptica ATCC 4617. Nature of the series: microbe, parasite or virus in culture. The following applies: Bordetella bronchiseptica, ATCC4617, read-out: Inhib. Zone Diam. It counts as cell-based.
Series [2] deals with Streptococcus faecium MB-2820. Nature of the series: In vitro antibacterial spectrum profile, zone of inhibition. The format is cell-based. The following applies: Enterococcus faecium, MB2820; 33 μg/ml; read-out: Inhib. Zone Diam.
Series [3] concerns Salmonella schottmuellari MB-2837. Briefly: In vivo protection of intraperitoneally infected mice. The arrangement: species or system Female white Swiss mice. Particulars: ip; at infection and 6 hours later; calculated on the projected purity of 890A1 at 5500 units/mg. The protocol:
(§1) In determining the in vivo activity, antibiotic 890A1 is dissolved in and diluted with 0.15M NaCl, 0.01M sodium phosphate, pH 7.0, to provide five fourfold concentrations of drug for testing. Female white Swiss mice, averaging about 21 g. in weight, were infected intraperitoneally with the test organism suspended in broth. The numbers of organisms injected were determined by standard plate-count techniques. At the time of infection and again 6 hours later, certain of the mice were treated intraperitoneally with the antibiotic. Five mice were used for each concentration of drug tested. An additional two mice, not infected, were treated with the antibiotic to determine whether the amount of agent injected was toxic. Controls of five mice for each of several dilutions of the infecting culture were included in each test in order to calculate the numbers of organisms that were lethal to 50% of the infected, untreated mice (LD50). This calculation was made using survival data of the seventh day after infection, at which time the amount of drug that should protect 50% of the infected mice (ED50) also was calculated.
All animals receiving this challenge and not treated with antibiotic died within 48 hours of the infection.

Series [4] has as its system Vibrio percolans ATCC 8461. Nature of the series: In vitro antibacterial spectrum profile, zone of inhibition. The format is cell-based. The following applies: Comamonas terrigena, ATCC8461, read-out: Inhib. Zone Diam.
For series [5], the system named is Alcaligenes faecalis ATCC 213. The series is described as above. It counts as cell-based. The following applies: ATCC213, 33 μg/ml, read-out: Inhib. Zone Diam. The protocol: (§2) The test to determine the antibiotic spectrum profile is carried out by application of a 0.015 ml. droplet on the surface of a 100×15 mm. petri plate containing 5 ml. of seeded nutrient agar and 0.2% yeast extract. The antibiotic 890A1 is tested at a level of 33 μg/ml. and the antibiotic 890A3 is tested at a level of 182 μg/ml.

A further series concerns Bacillus sp. MB-633. Described as above. The format is cell-based. Particulars: SP.MB633, 33 μg/ml, read-out: Inhib. Zone Diam. The protocol: as §2
In series [6] the test system is Proteus vulgaris ATCC 21100. Described as above. It counts as cell-based. The following applies: ATCC21100, 33 μg/ml, read-out: Inhib. Zone Diam. The protocol: as §2
Series [7] has as its system Corynebacterium pseudoidph. ATCC 9742. The description is as above. The format is cell-based. The following applies: ATCC9742, 33 μg/ml, read-out: Inhib. Zone Diam. The protocol: as §2
In series [8] the test system is Serratia marcescens ATCC 990. The description is as above. The following applies: ATCC990, 33 μg/ml, read-out: Inhib. Zone Diam. The format is cell-based.
The test system of series [9] is Streptococcus agalactiae MB-2875. The series is described as above. The format is cell-based. The following applies: MB2875, read-out: Inhib. Zone Diam.
Series [10] deals with Erwinia atroseptica ATCC 4466. The description is as above. It counts as cell-based. The following applies: Pectobacterium atrosepticum, ATCC4466; 33 μg/ml; read-out: Inhib. Zone Diam.
Series [11] relates to Salmonella gallinarum MB-1287. The series is described as above. The format is cell-based. The following applies: Salmonella enterica, 33 μg/ml, read-out: Inhib. Zone Diam.
For another series, the system named is Proteus vulgaris MB-1012. The series is described as above. It counts as cell-based. Particulars: MB1012, 33 μg/ml, read-out: Inhib. Zone Diam.
The nature of a further series: Electrophoresis. It counts as physicochemical. Particulars: neutral pH.
For series [12], the system named is Pseudomonas stutzeri ATCC 11607. Nature of the series: In vitro antibacterial spectrum profile, zone of inhibition. The format is cell-based. The following applies: Stutzerimonas stutzeri, ATCC11607; 33 μg/ml; read-out: Inhib. Zone Diam.
Series [13] relates to Proteus mirabilis MB-3126. The series is described as above. The format is cell-based. Particulars: MB3126, 33 μg/ml, read-out: Inhib. Zone Diam.
Series [14] concerns Xanthomonas vesicatoria MB-815. The series is described as above. The following applies: MB815, 33 μg/ml, read-out: Inhib. Zone Diam. The format is cell-based.
In series [15] the test system is Streptococcus faecalis MB-753. The description is as above. It counts as cell-based. Particulars: Enterococcus faecalis, MB753; 33 μg/ml; read-out: Inhib. Zone Diam.
The test system of series [16] is Proteus vulgaris (episome) MB-2112. The description is as above. The following applies: 33 μg/ml, read-out: Inhib. Zone Diam. It counts as cell-based.
The test system of series [17] is Bacillus subtilis ATCC 6633. The series is described as above. The format is cell-based. The following applies: ATCC6633, 33 μg/ml, read-out: Inhib. Zone Diam.
For the next series, the system named is Escherichia coli MB-1418. Described as above. The format is cell-based. The following applies: MB1418, read-out: Inhib. Zone Diam.
Series [18] relates to Klebsiella pneumoniae MB-1264. The series is described as above. The following applies: MB1264, read-out: Inhib. Zone Diam. The format is cell-based.
For the next series, the system named is Sarcina lutea ATCC 9341. The description is as above. It counts as cell-based. The following applies: Micrococcus luteus, ATCC9341; 33 μg/ml; read-out: Inhib. Zone Diam.
In series [19] the test system is Pseudomonas aeruginosa MB-2824. The description is as above. The format is cell-based. Particulars: MB2824, 33 μg/ml, read-out: Inhib. Zone Diam.
In series [20] the test system is Pseudomonas aeruginosa MB-979. The series is described as above. Particulars: MB979, 33 μg/ml, read-out: Inhib. Zone Diam. The format is cell-based.
In series [21] the test system is Vibrio percolans ATCC 8461. Nature of the series: Bioassay, agar plate disc-diffusion method.
The nature of another series: Solubility in water. It counts as physicochemical. The following applies: sodium salt.
Series [22] deals with Vibrio percolans ATCC 8461 + 2 × 10^5 units/ml penicillinase. Briefly: In vitro antibacterial spectrum profile, zone of inhibition, with penicillinase. The following applies: Comamonas terrigena, ATCC8461, 33 μg/ml, read-out: Inhib. Zone Diam. It counts as cell-based.
The test system of series [23] is Vibrio percolans resistant to ceph. C MB-2566. Nature of the series: In vitro antibacterial spectrum profile, zone of inhibition. It counts as cell-based. The following applies: Comamonas terrigena, read-out: Inhib. Zone Diam.
For series [24], the system named is Staphlococcus aureus ATCC 6538 P. The description is as above. The format is cell-based. The following applies: 33 μg/ml; read-out: Inhib. Zone Diam.
In series [25] the test system is Escherichia coli ATCC 9637. Nature of the series: In vitro antibacterial spectrum profile, zone of inhibition, synthetic medium. It counts as cell-based. Particulars: ATCC9637, read-out: Inhib. Zone Diam.
Series [26] deals with Aerobacter aerogenes MB-835. Nature of the series: In vitro antibacterial spectrum profile, zone of inhibition. The following applies: Klebsiella aerogenes, MB835; 33 μg/ml; read-out: Inhib. Zone Diam. It counts as cell-based.
Series [27] concerns Staphylococcus aureus MB-698. The description is as above. Particulars: MB698, 33 μg/ml, read-out: Inhib. Zone Diam. The format is cell-based.
Series [28] deals with gram-negative and gram-positive organisms. Briefly: In vivo activity. The arrangement: species or system Female white Swiss mice. Particulars: mouse. The protocol: as §1
Series [29] deals with Vibrio percolans (ATCC 8461). Nature of the series: Assay procedure for determining "890 Assay Units" (disc-plate assay, cephaloridine standard). The format is cell-based. The protocol:
The conventional disc-plate assay procedure is employed and the discs are 1/2 inch in diameter. The routinely poured 10 ml./plate inoculated with Vibrio percolans (ATCC 8461) is used and the standard is cephaloridine. Four concentrations of cephaloridine constitute the standard -- 3.12, 6.25. 12.5 and 25 mcg per ml. with the 12.5 mcg per ml. as a reference solution. The zone diameters on a 5 ml. plate for the standard are as follows:
A unit is defined as the amount of antibiotic-producing a 25 mm. zone of inhibition on a 5 ml. plate. Therefore, in this assay a concentration of 12.5 mcg per ml. of cephaloridine is considered equivalent to 1 unit of 890A. Since the slope of the line for cephaloridine is 4.0 calculations of the potency of a sample are made using a slope of 4.0.

Where [30] appears, read: 1 unit/ml. = the concentration which produces a 25 mm zone of inhibition.

With `CC(=O)NCCSC1=C(C(=O)O)N2C(=O)C(C(C)O)C2C1` (centres unmarked) [Antibiotic 890A1], the zone of inhibition at 33 µg/mL in [1] was found to be 22 mm; in series [2], 18 mm; in [4] it was 34 mm; in series [5], 27 mm; in the series on Bacillus sp. MB-633, 40 mm; in series [6] it was 34 mm. Further, the zone of inhibition at 33 µg/mL in series [7] was 34 mm; in series [8] it was 26 mm; in series [9], 36 mm; in series [10], 20 mm; in series [11] it was 33 mm; with Proteus vulgaris MB-1012 it was 21 mm. For the same molecule, the zone of inhibition at 33 µg/mL came to 10 mm in series [12]; 23 mm in [13]; 26 mm in series [14]; 17 mm in [15]; 32 mm in series [16]; 38 mm in [17]. Besides, the zone of inhibition at 33 µg/mL in the series with Escherichia coli MB-1418 was 27 mm; in series [18] it was 27 mm; in the series on Sarcina lutea ATCC 9341, 38 mm; in series [19], 0 mm; in [20] it was 0 mm; in series [22] it was 10 mm. For the same molecule, the zone of inhibition at 33 µg/mL in [23] stood at 15 mm; in series [24], 35 mm; in series [25], 27 mm; in series [26], 26 mm; in [27], 28 mm. Besides, the “ED50 × 2 doses” value in series [3] is 3 µg. Further, the movement on electrophoresis entry in “Electrophoresis” is recorded as “acidic substance which moves toward the positive pole on electrophoresis at neutral pH”. Further, in [21] (setting [30]), the “activity of the solution tested in vivo” value was 908 Units/ml. Further, in series [21] (setting [30]), the “potency of 890A1 used in the in vivo test” value came to 5.5 units per μg. This molecule also registered an antibiotic potency in series [21] (890A1 value defined as standard) of 250 units per HAEA300 unit. Further, the solubility in water result in the series “Solubility in water” was “very soluble in water”. For the same molecule, the in vivo activity entry in series [28] is “exhibits in vivo activity against gram-negative and gram-positive organisms”.

Take `O=C(Cc1cccs1)N[C@@H]1C(=O)N2C(C(=O)[O-])=C(C[n+]3ccccc3)CS[C@H]12` [cephaloridine]: the “slope of the line” value in [29] stood at 4.0. The zone of inhibition at 3.12 µg/mL in series [29] (Comamonas terrigena, ATCC8461, 3.12 mcg/ml, 5 ml. plate, read-out: Zone Diameter) worked out at 16.8 mm. For the same molecule, the zone of inhibition at 6.25 µg/mL in series [29] (Comamonas terrigena, ATCC8461, 6.25 mcg/ml, 5 ml. plate, read-out: Zone Diameter) turned out to be 22.3 mm. Besides, the zone of inhibition at 12.5 µg/mL in series [29] (Comamonas terrigena, ATCC8461, 12.5 mcg/ml, 5 ml. plate, read-out: Zone Diameter) was determined as 25 mm. In series [29] (Comamonas terrigena, ATCC8461, 25 mcg/ml, 5 ml. plate, read-out: Zone Diameter), the zone of inhibition at 25 µg/mL is 29.6 mm.

(Values after patent US4162324A, “Antibiotics 890A1 and 890A3” (Merck & Co., Inc., priority 1977, dated 1979).)
